The structures appear in SMILES notation.

Type in all cases: in vivo
The test system of test [1] is grape downy mildew organism Plasmopara viticola. Briefly: Grape Downy Mildew control (detached grape leaves). Conditions: vs untreated check, read-out: Fungicidal Activity Control %, Grape D.M.
The test system of test [2] is Tomato Late Blight organism Phytophthora infestans. Briefly: whole plant or invertebrate. Conditions: 168 h, read-out: Fungicidal Activity Control %, Tomato L.B.
The test system of test [3] is celery late blight organism Septoria apii. Briefly: whole plant or invertebrate. Particulars: 336 h, read-out: Fungicidal Activity Control %, Celery L.B.
Test [4] concerns tomato Early Blight organism, Alternaria solani conidia. In words: Tomato Early Blight control. Particulars: 288 h, about 12 days in greenhouse, vs untreated check, read-out: Fungicidal Activity Control %, Tomato E.B. On the procedure:
Compounds of the invention were tested for the control of the tomato Early Blight organism, Alternaria solani conidia. Tomato (variety Bonny Best) seedlings of 6 to 7 weeks old were used. The tomato plants were sprayed with a 250 ppm solution of the test compound in an acetone-and-water solution containing a small amount of a nonionic emulsifier. The sprayed plants were inoculated one day later with the organism, placed in the environmental chamber and incubated at […] and 100% relative humidity for 24 hours. Following the incubation, the plants were maintained in a greenhouse for about 12 days. Percent diseases control was based on the percent disease development on untreated check plants.

The test system of test [5] is Bean Powdery Mildew organism Erisiphe polygoni. In words: Bean Powdery Mildew control. Conditions: 240 h, 10 days, vs untreated check, read-out: Fungicidal Activity Control %, Bean P.M. As for the experimental part:
The compounds of the invention were tested for the control of the Bean Powdery Mildew organism […] polygoni. Seedling bean plants were sprayed with a 250 ppm solution of the test compound in acetone, water and a nonionic emulsifier. The sprayed plants were then inoculated 1 day later with organism. […] The percent disease control provided by a given test compound was based on the percent disease reduction relative to the untreated check plants.

Test [6] concerns Crabgrass (Digitaria sanguinalis). Briefly: Pre-emergent herbicidal test. Conditions: 504 h, pre-emergence, 33 micrograms/cm^2, 3 weeks, 0-to-100 scale, read-out: Herbicidal Activity Pre-Emergence % Control, Crab Grass. On the procedure:
(§1) An acetone solution of the test compound was prepared by mixing 750 mg of the compound, 220 mg of a nonionic surfactant and 25 ml of acetone. This solution was added to approximately 125 ml of water containing 156 mg of surfactant.
(§2) Seeds of the test vegetation were planted in a pot of […] and the test solution was sprayed uniformly onto the soil surface at a dose of 33 micrograms/cm^2. The pot was watered and placed in a greenhouse. […] At the end of this period, the herbicidal effectiveness of the compound was rated based on the physiological observations. A 0-to-100 scale was used, 0 representing no phytotoxicity, 100 representing complete kill.

In test [7] the test system is Lambsquarter (Chenopodium album). In words: Pre-emergent herbicidal test. Conditions: 504 h, pre-emergence, 33 micrograms/cm^2, 3 weeks, 0-to-100 scale, read-out: Herbicidal Activity Pre-Emergence % Control, L'Qtr. On the procedure: as §1, §2
In test [8] the test system is Mustard (Brassica arvensis). Briefly: Pre-emergent herbicidal test. Conditions: 504 h, pre-emergence, 33 micrograms/cm^2, 3 weeks, 0-to-100 scale. On the procedure: as §1, §2
For test [9], the system named is Pigweed (Amaranthus retraflexus). In words: Pre-emergent herbicidal test. Particulars: 504 h, pre-emergence, 33 micrograms/cm^2, 3 weeks, 0-to-100 scale. On the procedure: as §1, §2
The subject of test [10] is Soybean. Briefly: Pre-emergent herbicidal test. Conditions: Glycine max, 504 h; pre-emergence; 33 micrograms/cm^2; 3 weeks; 0-to-100 scale; read-out: Herbicidal Activity Pre-Emergence % Control, Soybean. As for the experimental part:
as §1, §2

Test [11] deals with Watergrass (Echinochloa crusgalli). In words: Pre-emergent herbicidal test. Conditions: Echinochloa crus-galli, 504 h; pre-emergence; 33 micrograms/cm^2; 3 weeks; 0-to-100 scale; read-out: Herbicidal Activity Pre-Emergence % Control, Water Grass. On the procedure: as §1, §2
Test [12] deals with Wild Oats (Avena fatura). In words: Pre-emergent herbicidal test. Particulars: 504 h, pre-emergence, 33 micrograms/cm^2, 3 weeks, 0-to-100 scale. On the procedure: as §1, §2
Test [13] relates to Crabgrass (Digitaria sanguinalis). Briefly: Post-emergent herbicidal test. Particulars: 504 h, post-emergence, 33 micrograms/cm^2, 3 weeks, 0-to-100 scale, read-out: Herbicidal Activity Post-Emergence % Control, Crab Grass.
Test [14] has as its system Lambsquarter (Chenopodium album). Briefly: Post-emergent herbicidal test. Conditions: 504 h, post-emergence, 33 micrograms/cm^2, 3 weeks, 0-to-100 scale, read-out: Herbicidal Activity Post-Emergence % Control, L'Qtr.
The test system of test [15] is Mustard (Brassica arvensis). Briefly: Post-emergent herbicidal test. Conditions: 504 h, post-emergence, 33 micrograms/cm^2, 3 weeks, 0-to-100 scale.
For test [16], the system named is Pigweed (Amaranthus retraflexus). Briefly: Post-emergent herbicidal test. Particulars: 504 h, post-emergence, 33 micrograms/cm^2, 3 weeks, 0-to-100 scale.
In test [17] the test system is Soybean. In words: Post-emergent herbicidal test. Particulars: Glycine max, 504 h, post-emergence, 33 micrograms/cm^2, 3 weeks, 0-to-100 scale, read-out: Herbicidal Activity Post-Emergence % Control, Soybean.
Test [18] deals with Watergrass (Echinochloa crusgalli). Briefly: Post-emergent herbicidal test. Conditions: Echinochloa crus-galli, 504 h, post-emergence, 33 micrograms/cm^2, 3 weeks, 0-to-100 scale, read-out: Herbicidal Activity Post-Emergence % Control, Water Grass.
Test [19] deals with Wild Oats (Avena fatura). Briefly: Post-emergent herbicidal test. Conditions: 504 h, post-emergence, 33 micrograms/cm^2, 3 weeks, 0-to-100 scale.
For test [20], the system named is Idaho pinto bean plants. In words: Axillary Bud Growth Inhibition Of Pinto Bean Plants. Particulars: 288 h; 625-ppm; twelve days after treatment; vs untreated check; read-out: Bud Inhib (percent inhibition of axillary bud growth). On the procedure: Compounds of this invention were tested to determine their plant-growth-retarding effects on axillary bud growth of pinto beans.
Idaho pinto bean plants (13-16 days old) having monofoliate leaves fully developed and first trifoliates beginning to unfold were used. All growth 5 mm above the monofoliate leaf node was removed with forceps 1 to 4 hours prior to treatment with the test compounds. Four plants were used for each test compound.
A 625-ppm solution of the test compound in a 2% aqueous acetone solution containing a small amount of a nonionic surfactant was sprayed onto the pinto bean plants until runoff. After drying, the treated plants were transferred to a greenhouse maintained at 20°-23° C. and watered at regular intervals. Twelve days after treatment, the bud growth at the axil of the monofoliate leaf was determined and expressed as percent inhibition of axillary bud growth as compared to untreated check plants.

Test [21] deals with Cotton plants. Briefly: Cotton Regrowth. Conditions: Gossypium hirsutum, 13 to 18 days, 100% is total inhibition, read-out: Regrowth (percent inhibition of cotton regrowth). As for the experimental part:
Compounds of this invention were tested to determine their plant-growth regulating effects on cotton leaf regrowth.
Cotton plants, 4 to 5 weeks old, containing 4 true leaves above the cotyledonary leaves are employed. Growth beyond the second true leaf was removed. Within 24 hours the plants are sprayed with a 2000 ppm solution of the test compound. After spraying, the plants are transferred to a greenhouse maintained at 85° F. (±5° F.) and incubated there for from 13 to 18 days. The plants during this period are sub-irrigated in 1/4" of water.
After this period, regrowth is determined as a percent inhibition of auxiliary bud regrowth--100% is total inhibition while 0% is no inhibition.

Broadly, the inhibition is the relative decrease from the control value, in per cent. As for `C=C(Cl)COC(c1cccnc1)c1ccc(Cl)cc1Cl` (stereo not shown) [Compound 4, 3-pyridyl-2,4-dichlorophenylcarbinol 2-chloroallylether], the pest or weed control at 250 ppm was determined as 27% in test [1]; 0% in test [2]; 83% in test [3]; 73% in [4]; 100% in test [5]. Further, the pest or weed control at 33 µg/cm2 in test [6] was determined as 70%; in test [7] it was 73%; in test [8] it was 30%; in [9] it was 35%; in [11], 83%; in [12] it was 33%. For the same molecule, in test [10], the plant injury at 33 µg/cm2 was 0%. In addition, the pest or weed control at 5000 ppm, 33 µg/cm2 in [13] came out at 0%; in [14], 55%; in test [15] it was 58%; in [16] it was 45%; in test [18], 0%; in [19] it was 0%. The plant injury at 5000 ppm, 33 µg/cm2 in [17] came to 28%. Further, the pest or weed control at 625 µg/mL in test [20] was determined as 30%. Also, the inhibition at 2000 ppm in [21] came to 0%.
With `Clc1ccc(COC(c2cccnc2)c2ccc(Cl)cc2Cl)c(Cl)c1` (stereo not shown) [Compound 1, 3-pyridyl-2,4-dichlorophenylcarbinol 2,4-dichlorobenzylether], the pest or weed control at 250 ppm in test [1] is 0%; in [2] it was 4%; in [3], 88%; in test [5] it was 100%. Also, the pest or weed control at 33 µg/cm2 in test [6], in test [7], in test [8], in test [9], in test [11] and in test [12] was 0% throughout. For the same molecule, the plant injury at 33 µg/cm2 in test [10] is 0%. Moreover, the pest or weed control at 5000 ppm, 33 µg/cm2 in [13] worked out at 0%; in test [14], 20%; in test [15], 30%; in [16], 30%; in test [18], 0%; in [19], 0%. The plant injury at 5000 ppm, 33 µg/cm2 in test [17] came to 20%. The pest or weed control at 625 µg/mL in test [20] stood at 85%. Also, the inhibition at 2000 ppm in [21] came to 55%.
As for `OC(c1cccnc1)c1ccc(Cl)cc1Cl` (stereo not shown) [Compound 2, 3-pyridyl-2,4-dichlorophenylcarbinol], the pest or weed control at 250 ppm is 25% in test [1], 0% in [2], 31% in test [3] and 100% in test [5]. For the same molecule, the pest or weed control at 33 µg/cm2 in test [6], in test [7], in test [8], in test [9], in test [11] and in test [12] was 0% in each case. Besides, in test [10], the plant injury at 33 µg/cm2 worked out at 0%. Further, the pest or weed control at 5000 ppm, 33 µg/cm2 in test [13], in test [14], in test [15], in test [16], in test [18] and in test [19] was 0% in each case. Also, the plant injury at 5000 ppm, 33 µg/cm2 in test [17] came out at 0%. Besides, in test [20], the pest or weed control at 625 µg/mL came to 0%. The inhibition at 2000 ppm in [21] came to 0%.
Take `c1ccc(-c2ccc(COC(c3ccccc3)c3cccnc3)cc2)cc1` (stereo not shown) [Compound 11, 3-pyridylphenylcarbinol 4-phenylbenzylether]: the pest or weed control at 250 ppm was determined as 13% in test [1]; 0% in [2]; 47% in [3]; 5% in [4]; 100% in [5]. The pest or weed control at 625 µg/mL in test [20] was 0%.

The values above are taken from US4407806A, “Fungicidal, herbicidal and plant growth regulating pyridyl-containing ethers” (Chevron Research Company, priority 1981, dated 1983).
